From patent publication US8658677B2, “Pyridyl-2-methylamino compounds, compositions and uses thereof” (Aria Neurosciences Inc., priority 2011, dated 2014)
Entries after “also recorded” stand apart in the source; their conditions may differ.

Key:
[1] = tested on: SK-N-SH human neuroblastoma cells; assay: Toxicity by MTT cell viability and LDH release assays; type: cell-based
Description: The effect of 0.01-100 μmol/L concentrations of investigational compounds was tested on the viability of the N2a murine neuroblastoma cell line (American Type Culture Collection, Manassas, Va.). N2a cells were grown in Eagle's minimal essential medium with the addition of 10% fetal bovine serum, streptomycin and gentomycin (Sigma, St. Louis, Mo.), harvested with 2% trypsin and plated at 10,000 cells/100 μL per well in flatbottom, 96-well microtiter plates. The cells were allowed to attach to the plate overnight in an incubator (37° C., 5% CO2) and in the following morning stocks of investigational compounds (50 mmol/L stock diluted in DMSO) were added to cells to achieve the final concentration 0.01-100 μmol/L. Adequate amounts of DMSO (Dimethyl sulfoxide, Sigma, St. Louis, Mo.) were added to control cells. Cells were grown in the presence of investigational compounds for 48 h and then their viability was assessed using a metabolic assay, which is based on cleavage of the yellow tetrazolium salt (MTT) to purple formazan crystals by viable cells. The MTT assay (Roche Molecular Biochemicals, Indianapolis, Ind.) was performed according to the manufacturer's instructions. The results from cell culture neurotoxicity studies were evaluated by one-way analysis of variance, followed by a Dunnett's test as a post hoc analysis.
As shown in FIG. 2 (MTT assay), the compounds were tested for toxicity in SK-N-SH human neuroblastoma cells using MTT cell viability and LDH release (membrane integrity) assays.

APP = assay: APP, C99, C83 and sAPP levels in 751APPSW CHO cells (immunoblot, immunostaining); type: cell-based, human
Aβ40 = target: T1, Aβ40 (Homo sapiens, UniProt P05067); assay: Thioflavin-T fibrillization assay; type: biochemical
T1 construct: host or cells: chemical solid-phase peptide synthesis (no expression host)
Text: Synthetic Aβ 1-40 peptide (sequence: […]) was synthesized at the W.M. Keck Foundation Facility (Yale University, New Haven, Conn.) by solid-phase technique on a p-methyl-benzhydrylamine resin, using a Biosearch SAM 2 synthesizer and purified by high performance liquid chromatography (HPLC) with the use of a reverse-phase support medium (Delta-Bondapak) on a 0.78×30 cm column with a 0-66% linear gradient of acetonitrile in 0.1% (v/v) trifluroacetic acid, as previously described. The peptide content of the eluate was monitored by measurement of its absorption at 214 nm. To verify the sequence and purity of the peptide, linear, time-of-flight mass spectrometry was performed at the Skirball Institute at New York University. For aggregation studies the peptide was diluted in 1,1,1,3,3,3-hexafluoro-2-propanol (HFIP; Sigma St. Loius, Mo.) at a concentration of 10 mM/mL, aliquoted and lyophilized. HFIP treatment renders peptides monomeric with minimal β-sheet content. Lyophilized peptides were stored at −80° C. and resuspended immediately prior to each experiment in the appropriate diluent.
The effect of compounds of the present invention on aggregation of Aβ 1-40 peptide was tested using a Thioflavin-T assay according to previously published methods. Aggregation of Aβ 1-40 incubated alone was measured for comparison. Aβ 1-40 was HFIP treated (as described above) and reconstituted in 100 mM Tris buffer (pH 7.4) to obtain a 100 μmol/L concentration. Stock of investigational compounds (50 mmol/L stock diluted in DMSO) was added to Aβ 1-40 to achieve of a concentration 10 or 100 μmol/L of investigational compound in 100 μmol/L of Aβ 1-40. All incubations were performed over a period of 7 days at 37° C. and the incubation mixture was slowly mixed for 6 hours every 24 h. At the conclusion of the experiment samples containing 15 μg of Aβ 1-40 with and without investigational compounds were added to 1 mL of 50 mM glycine, pH 9.2 and 2 μM of Thioflavin-T (Sigma Chemical, Co.; St. Louis, Mo.). Fluorescence was measured at an excitation of 435 nm and an emission of 485 nm in a Perkin-Elmer LS-50B fluorescence spectrophotometer (Perkin Elmer Instruments, Shelton, Conn.). A time scan of fluorescence was performed and three values after the decay reached a plateau (280, 290, 300 seconds) were averaged. The background fluorescence of 40 μL of Tris buffer added to 2 μM/L of Thioflavin-T solution was subtracted. Samples were run in duplicate. Differences in amount of fibrils formed in the presence of investigational compounds were evaluated by means of one-way ANOVA followed by a Dunnet post-hoc test using Statistica (version 6.1, StatSoft Inc., OK).
[…] monomerized synthetic Aβ40 was incubated in 0.1M Tris pH 7.0, T=37° C. for 8 days in the presence of 0-100 μM concentration of compounds. […] An arrow indicates Aβ monomers clustered in ill developed protofibril. (C) Oligomerization assay. ARN4261 and ARN4224 reduced the amount of Aβ oligomers by 78% and 74%, respectively p<0.001. A compound 69b (GKLVFNmgA) was used as a positive control. 69b is homologous to Aβ sequence 17-21 and contains N-methyl glycine (Nmg), which renders it capable of anti-fibrillization and anti-oligomerization effect. (D) Principle of oligomerization assay. 100 μM Aβ40 was aggregated alone or with the addition of 10 μM of tested compounds [1:10 compound: Ab ratio] for 24 h in conditions promoting oligomers assembly, i.e., DMEM/F-12 medium+0.2% SDS, T=4° C. Prior to SDS-PAGE in non-reducing conditions samples were treated with glutaraldehyde. A strong smear of Aβ oligomers is seen between 37 and 70 KDa markers (arrows) in lane 2, and a dense band below the 25 KDa marker reflects Aβ monomers non-dissociated by 10% polyacrylamide gel. No oligomers above 37 KDa marker are seen in lane 1 containing only Aβ monomers run as a control. […] (E) TEM of Aβ oligomers. […] Yellow arrowhead indicates smaller oligomers.

T1 sequence (P05067 672-711): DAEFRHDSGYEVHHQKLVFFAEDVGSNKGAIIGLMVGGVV

Row | SMILES | toxicity ([1]; test not specified) | anti-APP immunostaining with 22C11 mAb (APP; 751APPSW CHO cells) | concentrations at which reduction in APP FL level is seen (APP; 751APPSW CHO clone) [µM] | level of APP FL, C99 and C83 in cell lysates (APP; 751APPSW CHO clone) | sAPP (sAPPα and total sAPP stub) in conditioned media (APP; 751APPSW CHO clone) | level of β-actin (APP; 751APPSW CHO clone, increasing concentration) | behaviour in anti-Aβ aggregation assays (Aβ40; compared with ARN4261) | toxicity ([1]; 0.1-100 μM) | EC50 (Aβ40; 100 μM HFIP monomerized synthetic Aβ40, 0.1M Tris pH 7.0, 37° C., 8 days, 0-100 μM compound, read-out: EC50 of fibril reduction) [µM] | Emax (Aβ40; pH 7, read-out: EMAX (% of maximal fibril reduction)) [%] | TEM analysis of Aβ fibrils (Aβ40; transmission electron microscopy)
1 | Oc1ccccc1NCc1ccccn1 [ARN2966, 2-[(pyridine-2-ylmethyl)-amino]-phenol] | not toxic | reduced without evidence of staining redistribution; also recorded: Reduced anti-APP staining | ≥ 10 | reduce the level of full length APP (APP FL) and both C99 and C83 APP stubs; also recorded: reduced levels of full length APP (APP FL) and C99 and C83 APP stubs | reduced levels | no apparent change | behaves comparably to ARN4261 |  |  |  | 
2 | Oc1ccccc1N=Cc1ccccn1 [ARN4261, 2-(Pyridin-2-ylmethyleneamino)-phenol] |  |  |  | reduce the level of full length APP (APP FL) and both C99 and C83 APP stubs; also recorded: reduced levels of full length APP (APP FL) and C99 and C83 APP stubs |  |  |  | no toxicity | 16 | 88 | markedly reduced density and length of Aβ fibrils
